The target in this assay is T1, CDK8/Cyclin C (Homo sapiens, UniProt P49336).
T1 construct: purchased Invitrogen PV4402
T1 sequence (P49336 whole entry): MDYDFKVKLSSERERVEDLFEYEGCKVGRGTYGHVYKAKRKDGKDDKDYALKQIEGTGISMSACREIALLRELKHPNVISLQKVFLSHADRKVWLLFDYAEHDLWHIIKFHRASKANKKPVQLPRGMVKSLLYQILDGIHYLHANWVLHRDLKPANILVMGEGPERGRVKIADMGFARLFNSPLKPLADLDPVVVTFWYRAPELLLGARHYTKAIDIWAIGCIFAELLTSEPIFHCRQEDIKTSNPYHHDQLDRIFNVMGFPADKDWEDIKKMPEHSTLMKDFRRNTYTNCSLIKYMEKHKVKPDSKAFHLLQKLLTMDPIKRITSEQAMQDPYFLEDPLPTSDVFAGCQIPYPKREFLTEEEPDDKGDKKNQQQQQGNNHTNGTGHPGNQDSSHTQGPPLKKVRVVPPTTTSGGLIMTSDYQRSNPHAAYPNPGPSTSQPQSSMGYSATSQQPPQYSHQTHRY
T1 sequence (P24863 whole entry partner): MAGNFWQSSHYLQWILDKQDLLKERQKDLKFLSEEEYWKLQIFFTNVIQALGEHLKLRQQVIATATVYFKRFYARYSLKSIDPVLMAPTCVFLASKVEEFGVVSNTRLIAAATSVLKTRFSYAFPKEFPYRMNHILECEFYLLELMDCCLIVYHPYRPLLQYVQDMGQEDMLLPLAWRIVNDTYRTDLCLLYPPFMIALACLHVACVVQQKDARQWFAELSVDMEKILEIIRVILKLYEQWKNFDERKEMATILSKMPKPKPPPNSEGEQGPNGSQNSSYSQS
As to the kind of experiment: CDK8/Cyclin C LANCE TR-FRET kinase assay. The format is biochemical. Particulars: CDK8/Cyclin C 10 nM, ATP 24 μM, Ulight-GS peptide 80 nM, 37° C. 30 mins. An excerpt: CDK8/Cyclin C LANCE TR-FRET Kinase Assay:
The biological activity of the compounds of the invention can be determined using the assay described below.
CDK8/Cyclin C protein was obtained from Invitrogen, cat #PV4402. ULight-Glycogen Synthase (Ulight-GS) peptide with sequence PASVPPSPSLSRHSSPHQ(pS)ED, and Europium-anti-phospho Glycogen Synthase (Ser641) [Eu-anti-P-GS (Ser641)] were obtained from Perkin Elmer, cat #TRF0131-M and cat #TRF0220. Adenosine-5′-triphosphate (ATP) was obtained from Invitrogen, cat #PV3227.
A mixture of (1) a compound of formula I, (2) substrate [Ulight-GS peptide (80 nM) and ATP (24 μM)], and (3) CDK8/Cyclin C (10 nM) in reaction buffer (50 mM Hepes, pH7.0, 10 mM MgCl2, 1 mM EGTA, 0.2 mg/mL BSA, 0.8 mM DTT) were incubated at 37° C. for 30 mins. Then, [Eu-anti-P-GS (Ser641)] (1.5 nM) was added. Following incubation at room temperature for 30 mins, the TR-FRET signals were detected using Envision reader (Ex 340 nm, Em 615 nm and 665 nm) from Perkin Elmer. The reactivity in percentage of inhibition or dose response was analyzed with GraphPad Prism 5 (GraphPad Software).
On the technique in general: TR-FRET usually uses a lanthanide donor and a delayed reading to cut background.
As usually defined, the IC50 is the concentration that inhibits the measured activity by half. Higher therefore signals a need for much substance. Regarding `CC1(C)C(=O)Nc2ccc(-c3cncc(N[C@@H](CO)c4ccccc4)c3)cc21` [Example 2, 5-[5-((R)-2-Hydroxy-1-phenyl-ethylamino)-pyridin-3-yl]-3,3-dimethyl-1,3-dihydro-indol-2-one], half-maximal inhibition (IC50) was put at 132 nM.
With `O=C1Cc2cc(-c3cncc(N[C@@H](CO)c4ccccc4Cl)c3)ccc2N1` [Example 3, 5-{5-[(R)-1-(2-Chloro-phenyl)-2-hydroxy-ethylamino]-pyridin-3-yl}-1,3-dihydro-indol-2-one], the IC50 was found to be 2.1 nM.
Consider `O=C1Cc2cc(-c3cncc(N[C@H](CO)c4ccccc4Cl)c3)ccc2N1` [Example 4, 5-{5-[(S)-1-(2-Chloro-phenyl)-2-hydroxy-ethylamino]-pyridin-3-yl}-1,3-dihydro-indol-2-one], for which the IC50 was 157 nM.
The result for `O=c1[nH]c2ccc(-c3cncc(N[C@@H](CO)c4ccccc4)c3)cc2[nH]1` [Example 5, 5-[5-((R)-2-Hydroxy-1-phenyl-ethylamino)-pyridin-3-yl]-1,3-dihydro-benzoimidazol-2-one] reads 1.1 nM; that for `O=C1Nc2ccc(-c3cncc(N[C@@H](CO)c4ccccc4)c3)cc2C12CC2` [Example 6, (R)-5′-(5-((2-Hydroxy-1-phenylethyl)amino)pyridin-3-yl)-spiro[cyclopropane-1,3′-indolin]-2′-one], 2.9 nM.
The result for `O=C1Cc2cc(-c3cncc(N[C@@H](CO)c4ccccc4)c3)cnc2N1` [Example 7, 5-[5-((R)-2-Hydroxy-1-phenyl-ethylamino)-pyridin-3-yl]-1,3-dihydro-pyrrolo[2,3-b]pyridin-2-one] reads 315 nM.
Compound `O=C1Nc2ccc(-c3cncc(N[C@@H](CO)c4ccccc4)c3)cc2C1(F)F` [Example 8, 3,3-Difluoro-5-[5-((R)-2-hydroxy-1-phenyl-ethylamino)-pyridin-3-yl]-1,3-dihydro-indol-2-one] showed an IC50 of 37.6 nM. This IC50 lies about 8.4-fold lower than the previous one.
The result for `O=C1Cc2nc(-c3cncc(N[C@@H](CO)c4ccccc4)c3)ccc2N1` [Example 9, 5-[5-((R)-2-Hydroxy-1-phenyl-ethylamino)-pyridin-3-yl]-1,3-dihydro-pyrrolo[3,2-b]pyridin-2-one] reads 81.3 nM.
Compound `O=C1Cc2cc(-c3cncc(N[C@@H](CO)c4ccccc4)c3)c(F)cc2N1` [Example 10, 6-Fluoro-5-[5-((R)-2-hydroxy-1-phenyl-ethylamino)-pyridin-3-yl]-1,3-dihydro-indol-2-one] registered a half-maximal inhibitory concentration (IC50) of 0.5 nM.
With `O=C1Cc2cc(-c3cncc(N[C@@H](CO)c4ccccc4)c3)cc(F)c2N1` [Example 11, 7-Fluoro-5-[5-((R)-2-hydroxy-1-phenyl-ethylamino)-pyridin-3-yl]-1,3-dihydro-indol-2-one], half-maximal inhibition (IC50) was put at 27.8 nM.
The result for `O=c1[nH]c2ccc(-c3cncc(N[C@@H](CO)c4ccccc4)c3)cc2o1` [Example 12, 6-[5-((R)-2-Hydroxy-1-phenyl-ethylamino)-pyridin-3-yl]-3H-benzooxazol-2-one] reads 3.8 nM; that for `O=c1[nH]c2ccc(-c3cncc(N[C@@H](CO)c4ccccc4)c3)cc2s1` [Example 13, 6-[5-((R)-2-Hydroxy-1-phenyl-ethylamino)-pyridin-3-yl]-3H-benzothiazol-2-one], 7.8 nM; that for `OC[C@H](Nc1cncc(-c2ccc3c(c2)OCO3)c1)c1ccccc1` [Example 14, (R)-2-(5-Benzo[1,3]dioxol-5-yl-pyridin-3-ylamino)-2-phenyl-ethanol], 46.3 nM.
As to `OC[C@H](Nc1cncc(-c2ccc3c(c2)OCCO3)c1)c1ccccc1` [Example 15, (R)-2-[5-(2,3-Dihydro-benzo[1,4]dioxin-6-yl)-pyridin-3-ylamino]-2-phenyl-ethanol], it took 350 nM to reach half-maximal inhibition (IC50).
Consider `OC[C@H](Nc1cncc(-c2cccc3[nH]ccc23)c1)c1ccccc1` [Example 17, (R)-2-[5-(1H-Indol-4-yl)-pyridin-3-ylamino]-2-phenyl-ethanol], for which 191 nM corresponded to half-maximal inhibition (IC50).
On to `Nc1n[nH]c2ccc(-c3cncc(N[C@@H](CO)c4ccccc4)c3)cc12` [Example 18, (R)-2-[5-(3-Amino-1H-indazol-5-yl)-pyridin-3-ylamino]-2-phenyl-ethanol], for which the IC50 worked out at 0.8 nM.
For `OC[C@H](Nc1cncc(-c2ccc3[nH]nc(F)c3c2)c1)c1ccccc1` [Example 19], inhibition was half-maximal at 1.8 nM (IC50).
Compound `Cc1n[nH]c2ccc(-c3cncc(N[C@@H](CO)c4ccccc4)c3)cc12` [Example 20, (R)-2-[5-(3-Methyl-1H-indazol-5-yl)-pyridin-3-ylamino]-2-phenyl-ethanol] displayed an IC50 of 0.5 nM.
`CCc1n[nH]c2ccc(-c3cncc(N[C@@H](CO)c4ccccc4)c3)cc12` [Example 21, (R)-2-[5-(3-Ethyl-1H-indazol-5-yl)-pyridin-3-ylamino]-2-phenyl-ethanol] displayed an IC50 of 1.5 nM.
`CSc1n[nH]c2ccc(-c3cncc(N[C@@H](CO)c4ccccc4)c3)cc12` [Example 22, (R)-2-[5-(3-Methylsulfanyl-1H-indazol-5-yl)-pyridin-3-ylamino]-2-phenyl-ethanol] registered an IC50 of 0.5 nM.
`CS(=O)(=O)c1n[nH]c2ccc(-c3cncc(N[C@@H](CO)c4ccccc4)c3)cc12` [Example 23, (R)-2-[5-(3-Methanesulfonyl-1H-indazol-5-yl)-pyridin-3-ylamino]-2-phenyl-ethanol] had an IC50 of 3.2 nM. Compared with the last compound, the IC50 is about 6.4-fold higher.
The compound `OC[C@H](Nc1cncc(-c2cnc3[nH]ncc3c2)c1)c1ccccc1` [Example 24, (R)-2-Phenyl-2-[5-(1H-pyrazolo[3,4-b]pyridin-5-yl)-pyridin-3-ylamino]-ethanol] returned an IC50 of 1.1 nM.
The result for `OC[C@H](Nc1cncc(-c2cc3cn[nH]c3cn2)c1)c1ccccc1` [Example 25, (R)-2-Phenyl-2-[5-(1H-pyrazolo[3,4-c]pyridin-5-yl)-pyridin-3-ylamino]-ethanol] reads 0.7 nM.
In turn, `OC[C@H](Nc1cncc(-c2ccc3[nH]nnc3c2)c1)c1ccccc1` [Example 26, (R)-2-[5-(1H-Benzotriazol-5-yl)-pyridin-3-ylamino]-2-phenyl-ethanol] yielded an IC50 of 9.4 nM.
In turn, `OC[C@H](Nc1cncc(-c2ccc3[nH]ncc3n2)c1)c1ccccc1` [Example 27, (R)-2-Phenyl-2-[5-(1H-pyrazolo[4,3-b]pyridin-5-yl)-pyridin-3-ylamino]-ethanol] displayed an IC50 of 9.7 nM.
Take `OC[C@H](Nc1cncc(-c2ccc3[nH]nc(Cl)c3c2)c1)c1ccccc1` [Example 28, (R)-2-[5-(3-Chloro-1H-indazol-5-yl)-pyridin-3-ylamino]-2-phenyl-ethanol]: 1 nM corresponded to half-maximal inhibition (IC50).
`NC(=O)C(Nc1cncc(-c2ccc3c(c2)CC(=O)N3)c1)c1ccccc1` (centres unmarked) [Example 29, 2-[5-(2-Oxo-2,3-dihydro-1H-indol-5-yl)-pyridin-3-ylamino]-2-phenyl-acetamide] had an IC50 of 67.2 nM.
For the compound `CC(=O)NC[C@H](Nc1cncc(-c2ccc3c(c2)CC(=O)N3)c1)c1ccccc1` [Example 30, N-{(R)-2-[5-(2-Oxo-2,3-dihydro-1H-indol-5-yl)-pyridin-3-ylamino]-2-phenyl-ethyl}-acetamide], the midpoint of inhibition, the IC50, lay at 22.7 nM.
The result for `NC(=O)C(Nc1cncc(-c2ccc3c(c2)CNC3=O)c1)c1ccccc1` (stereo not drawn) [Example 31, 2-[5-(l-Oxo-2,3-dihydro-1H-isoindol-5-yl)-pyridin-3-ylamino]-2-phenyl-acetamide] reads 294 nM.
